From patent US20240101576A1, “HETEROCYCLIC INHIBITORS OF EGFR AND/OR HER2, FOR USE IN THE TREATMENT OF CANCER” (Scorpion Therapeutics, Inc., priority 2020, published 2024)

How the values were obtained:
Type in all cases: cell-based
EGFR L858R (Ba/F3 cells) = biological target: T1, EGFR L858R (Ba/F3 cells) (Homo sapiens, UniProt P00533, L858R); assay: Inhibitor activity on EGFR-dependent cell growth (CellTiter-Glo, 72 h), Ba/F3 EGFR L858R; settings: read-out: BaF3 L858R IC50
T1 construct: expressed in transfected cells; host or cells: Ba/F3 (murine pro-B cells), retroviral transduction, puromycin selection, IL3-independent pool
Text: (§1) Example A. Inhibitor Activity on EGFR-Dependent Cell Growth
(§2) Cell lines are generated by transducing Ba/F3 cells with retroviruses containing vectors with EGFR WT, EGFR L858R, EGFR exon 19del, EGFR L858R/C797S, EGFR exon 20 NPG Ins D770_N771, EGFR exon 20 ASV Ins V769_D770, EGFR exon 20 SVD Ins D770_N771, or EGFR exon 20 FQEA Ins A763_V764 genes and a puromycin selection marker. Transduced cells are selected with puromycin for 7 days and are then be transferred into culture media without Interleukin 3 (IL3). EGFR WT cells are maintained with supplemental EGF. Surviving cells are confirmed to express EGFR by Western blot and maintained as a pool. The IC50 date were included in Table 6 and Table 7.
(§3) 1.1 Cells are harvested from flask into cell culture medium and the cell number counted.
(§4) 1.2 Cells are diluted with culture medium to the desired density and 40 μL of cell suspension is added into each well of 384-well cell culture plate and the seeding density is 800 (FQEA, exon 19del), 600 (WT, NPG, L858R/C797S), or 400 (ASV, SVD, L858R) cells/well.
(§5) 2 Compound Preparation and Treatment
(§6) 2.1 Test compounds are dissolved to 10 mM in a DMSO stock solution. 45 μL of stock solution is transferred to a 384 polypropylene plate (pp-plate). Perform 3-fold, 10-point dilution via transferring 15 μL compound into 30 μL DMSO using a TECAN (EVO200) liquid handler.
(§7) 2.2 Spin plates at room temperature at 1,000 RPM for 1 minute.
(§8) 2.3 Transfer 120 nL of diluted compound from compound source plate into the cell plate.
(§9) 2.4 After compound treatment for 72 hours, perform CTG detection for compound treatment plates as described in “Detection” section.
(§10) 3.1 Plates are removed from incubators and equilibrated at room temperature for 15 minutes.
(§11) 3.2 Thaw the CellTiter Glo reagents and allow to equilibrate to room temperature before the experiment.
(§12) 3.3 Add 40 μL of CellTiter-Glo reagent into each well (at 1:1 to culture medium). Then place the plates at room temperature for 30 min followed by reading on EnVision.
(§13) 4.1 Inhibition activity is calculated following the formula below:
(§14) % Inhibition=100×(LumHC−LumSample)/(LumHC−LumLC) • where HC is obtained from cells treated with 0.1% DMSO only; and LC is obtained from culture medium only.
(§15) 4.2 2. Calculate the IC50 by fitting the Curve using Xlfit (v5.3.1.3), equation 201.
(§16) Y=Bottom+(Top−Bottom)/(1+10^((Log IC50−X)*HillSlope))

[1] = biological target: EGFR exon 19del (Ba/F3 cells) (Homo sapiens, UniProt P00533); assay: Inhibitor activity on EGFR-dependent cell growth (CellTiter-Glo, 72 h), Ba/F3 EGFR exon 19del; settings: Ba/F3 EGFR exon 19del cell growth, read-out: BaF3 Del19 IC50
Text: as §1, §2, §3, §4, §5, §6, §7, §8, §9, §10, §11, §12, §13, §14, §15, §16

EGFR WT (Ba/F3 cells) = biological target: T2, EGFR WT (Ba/F3 cells) (Homo sapiens, UniProt P00533); assay: Inhibitor activity on EGFR-dependent cell growth (CellTiter-Glo, 72 h), Ba/F3 EGFR WT; settings: read-out: BaF3 WT IC50
T2 construct: expressed in transfected cells; host or cells: Ba/F3 (murine pro-B cells), retroviral transduction, puromycin selection, maintained with EGF
Outline: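 This growth assay used Ba/F3 cells that depend on wild-type EGFR and are kept in EGF without IL3. Compounds were made up as 10 mM DMSO stocks and diluted 3-fold over 10 points. 120 nL went onto 600 cells/well. After 72 hours, 40 μL CellTiter-Glo was added and luminescence read on EnVision after 30 min.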

[2] = biological target: T3, EGFR exon 20 NPG Ins D770_N771 (Ba/F3 cells) (Homo sapiens, UniProt P00533, INS770NPG); assay: Inhibitor activity on EGFR-dependent cell growth (CellTiter-Glo, 72 h), Ba/F3 EGFR exon 20 NPG Ins; settings: read-out: BaF3 NPG IC50
T3 construct: expressed in transfected cells; host or cells: Ba/F3 (murine pro-B cells), retroviral transduction, puromycin selection, IL3-independent pool
Outline: (§17)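 IC50s derive from a sigmoidal dose–response fit of CellTiter-Glo signal. The signal was normalised between […]-treated cells and cell-free medium. Ba/F3 mutant-EGFR cells, seeded at 400–800/well depending on the line, had 72 h of exposure to a 10-point, 3-fold compound series.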

[3] = biological target: T4, EGFR exon 20 ASV Ins V769_D770 (Ba/F3 cells) (Homo sapiens, UniProt P00533, INS769ASV); assay: Inhibitor activity on EGFR-dependent cell growth (CellTiter-Glo, 72 h), Ba/F3 EGFR exon 20 ASV Ins; settings: read-out: BaF3 ASV IC50
T4 construct: expressed in transfected cells; host or cells: Ba/F3 (murine pro-B cells), retroviral transduction, puromycin selection, IL3-independent pool
Outline: as §17

[4] = biological target: T5, EGFR exon 20 SVD Ins D770_N771 (Ba/F3 cells) (Homo sapiens, UniProt P00533, INS770SVD); assay: Inhibitor activity on EGFR-dependent cell growth (CellTiter-Glo, 72 h), Ba/F3 EGFR exon 20 SVD Ins; settings: read-out: BaF3 SVD IC50
T5 construct: expressed in transfected cells; host or cells: Ba/F3 (murine pro-B cells), retroviral transduction, puromycin selection, IL3-independent pool
Outline: as §17

[5] = biological target: T6, EGFR exon 20 FQEA Ins A763_V764 (Ba/F3 cells) (Homo sapiens, UniProt P00533, INS763FQEA); assay: Inhibitor activity on EGFR-dependent cell growth (CellTiter-Glo, 72 h), Ba/F3 EGFR exon 20 FQEA Ins; settings: read-out: BaF3 FQEA IC50
T6 construct: expressed in transfected cells; host or cells: Ba/F3 (murine pro-B cells), retroviral transduction, puromycin selection, IL3-independent pool
Outline: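 Ba/F3 cells engineered with each EGFR variant were plated (400, 600 or 800 per well for L858R, L858R/C797S, and exon 19del/FQEA). They were exposed for 72 hours to compound serially diluted from a 10 mM DMSO stock. Remaining viable cells were quantified by CellTiter-Glo, and IC50 was curve-fitted.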

EGFR (CUTO14 cells) = EGFR (CUTO14 cells) (Homo sapiens, UniProt P00533); assay: Inhibitor activity on EGFR phosphorylation (pEGFR AlphaLISA, 2 h), CUTO14 cells
Text: Example B. Inhibitor Activity on EGFR phosphorylation (pEGFR)
EGFR mutant Ba/F3 cells were generated by transduction with retrovirus containing vectors expressing EGFR L858R, EGFR exon 19del, EGFR L858R/C797S, EGFR exon 20 NPG Ins D770_N771, EGFR exon 20 ASV Ins V769_D770, or EGFR exon 20 SVD Ins D770_N771 genes along with a puromycin selection marker. Transduced cells are selected with puromycin for 7 days and are then be transferred into culture media without Interleukin 3 (IL3). Surviving cells are confirmed to express EGFR by Western blot and maintained as a pool. CUTO14 cells were obtained from Dr. Robert C. Doebele at the University of Colorado. The IC50 date are included in Table 6 and Table 7.
as §3
1.2 Cells are diluted with culture medium to the desired density and 40 μL of cell suspension is added into each well of 384-well cell culture plate and the seeding density is 50K cells/well (Ba/F3) or 12.5K cells/well (CUTO14).
as §5, §6, §7
2.3 Transfer 5 nL of diluted compound from compound source plate into the cell plate.
2.4 After compound treatment for 2 hours, perform pEGFR detection by AlphaLISA for compound treatment plates as described in “Detection” section.
3 Detection by pEGFR AlphaLISA (Perkin-Elmer)
3.1 Plates are removed from incubators and equilibrated at room temperature for 10 minutes, and media was removed
3.2 10 μL of lysis buffer is added and plates shaken at 600 rpm for 1 hr.
3.3 Prepare acceptor mix just before use and dispense 5 μL of acceptor mix to all the wells. Shake 350 rpm for Ihr in the dark
3.4 Prepare donor mix under low light conditions prior to use. Dispense 5 μL of donor mix to all the wells. Mix well on the shaker, seal and wrap in aluminum foil and incubate 1.5 hrs at room temperature in the dark
3.5 Transfer 18.5 μL mixture to OptiPlate 384, and read using an Envision. The IC50 date were included in Table 6 and Table 7.

T2 sequence (P00533 25-1210): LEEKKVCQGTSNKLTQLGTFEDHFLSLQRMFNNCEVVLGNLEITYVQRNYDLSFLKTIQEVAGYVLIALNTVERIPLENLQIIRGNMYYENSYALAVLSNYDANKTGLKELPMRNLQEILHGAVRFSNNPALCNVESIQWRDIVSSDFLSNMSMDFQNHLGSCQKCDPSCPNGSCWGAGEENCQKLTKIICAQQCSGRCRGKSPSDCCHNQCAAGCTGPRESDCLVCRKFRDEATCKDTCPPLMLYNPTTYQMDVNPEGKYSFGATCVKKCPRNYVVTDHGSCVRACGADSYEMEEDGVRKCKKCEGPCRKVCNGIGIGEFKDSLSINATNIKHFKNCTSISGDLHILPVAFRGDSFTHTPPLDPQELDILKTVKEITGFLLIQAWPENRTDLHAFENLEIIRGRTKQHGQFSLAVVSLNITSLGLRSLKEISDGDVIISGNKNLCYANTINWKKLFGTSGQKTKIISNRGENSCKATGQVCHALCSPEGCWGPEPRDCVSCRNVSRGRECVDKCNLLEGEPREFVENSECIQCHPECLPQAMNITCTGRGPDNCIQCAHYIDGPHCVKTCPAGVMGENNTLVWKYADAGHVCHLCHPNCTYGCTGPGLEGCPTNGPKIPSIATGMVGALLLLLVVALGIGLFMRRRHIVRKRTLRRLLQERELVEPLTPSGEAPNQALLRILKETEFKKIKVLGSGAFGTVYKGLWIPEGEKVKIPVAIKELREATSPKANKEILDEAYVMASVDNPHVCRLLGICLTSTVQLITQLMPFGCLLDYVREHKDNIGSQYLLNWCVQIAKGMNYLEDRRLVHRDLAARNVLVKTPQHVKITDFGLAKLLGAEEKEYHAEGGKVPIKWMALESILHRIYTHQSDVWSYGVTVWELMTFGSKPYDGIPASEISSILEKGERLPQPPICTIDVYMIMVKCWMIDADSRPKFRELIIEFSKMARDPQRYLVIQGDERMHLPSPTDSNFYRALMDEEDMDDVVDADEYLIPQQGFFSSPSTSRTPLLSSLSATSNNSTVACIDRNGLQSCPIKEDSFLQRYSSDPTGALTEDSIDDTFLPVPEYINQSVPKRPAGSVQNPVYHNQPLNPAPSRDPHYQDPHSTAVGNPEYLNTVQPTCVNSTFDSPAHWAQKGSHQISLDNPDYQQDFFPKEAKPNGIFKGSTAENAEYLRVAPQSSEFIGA
T5 sequence (P00533 with tags, fused parts or gaps INS770SVD): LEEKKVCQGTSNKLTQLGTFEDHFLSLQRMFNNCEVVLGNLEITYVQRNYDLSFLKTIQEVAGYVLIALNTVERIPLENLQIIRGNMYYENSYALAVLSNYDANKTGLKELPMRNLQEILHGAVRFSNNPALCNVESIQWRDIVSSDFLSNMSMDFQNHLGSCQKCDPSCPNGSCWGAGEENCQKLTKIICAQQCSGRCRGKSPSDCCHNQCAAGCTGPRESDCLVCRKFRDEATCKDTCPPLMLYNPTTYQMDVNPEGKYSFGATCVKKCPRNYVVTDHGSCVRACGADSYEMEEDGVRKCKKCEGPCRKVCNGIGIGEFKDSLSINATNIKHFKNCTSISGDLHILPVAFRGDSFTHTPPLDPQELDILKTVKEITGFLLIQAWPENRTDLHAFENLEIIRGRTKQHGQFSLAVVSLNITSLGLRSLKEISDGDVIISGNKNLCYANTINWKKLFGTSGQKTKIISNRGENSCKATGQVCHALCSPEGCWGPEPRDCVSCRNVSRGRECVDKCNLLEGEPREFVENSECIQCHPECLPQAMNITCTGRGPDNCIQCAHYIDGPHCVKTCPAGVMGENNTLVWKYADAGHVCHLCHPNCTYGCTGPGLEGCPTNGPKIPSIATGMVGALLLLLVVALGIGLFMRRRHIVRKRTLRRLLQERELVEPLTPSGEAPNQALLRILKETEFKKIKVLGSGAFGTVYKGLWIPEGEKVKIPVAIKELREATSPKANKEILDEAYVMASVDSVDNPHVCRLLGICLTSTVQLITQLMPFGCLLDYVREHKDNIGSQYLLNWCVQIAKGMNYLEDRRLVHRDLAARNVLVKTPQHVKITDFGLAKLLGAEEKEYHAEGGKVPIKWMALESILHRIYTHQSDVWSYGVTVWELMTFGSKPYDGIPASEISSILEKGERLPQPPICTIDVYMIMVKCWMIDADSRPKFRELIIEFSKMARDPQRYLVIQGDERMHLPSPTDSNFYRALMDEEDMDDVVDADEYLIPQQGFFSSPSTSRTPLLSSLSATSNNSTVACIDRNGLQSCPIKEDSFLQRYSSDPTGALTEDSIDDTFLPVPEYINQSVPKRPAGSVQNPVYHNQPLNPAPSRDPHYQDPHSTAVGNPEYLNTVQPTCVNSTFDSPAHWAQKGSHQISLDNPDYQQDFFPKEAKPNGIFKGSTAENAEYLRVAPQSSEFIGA
Chain of EGFR exon 19del (Ba/F3 cells) (P00533 with tags, fused parts or gaps DEL746-750): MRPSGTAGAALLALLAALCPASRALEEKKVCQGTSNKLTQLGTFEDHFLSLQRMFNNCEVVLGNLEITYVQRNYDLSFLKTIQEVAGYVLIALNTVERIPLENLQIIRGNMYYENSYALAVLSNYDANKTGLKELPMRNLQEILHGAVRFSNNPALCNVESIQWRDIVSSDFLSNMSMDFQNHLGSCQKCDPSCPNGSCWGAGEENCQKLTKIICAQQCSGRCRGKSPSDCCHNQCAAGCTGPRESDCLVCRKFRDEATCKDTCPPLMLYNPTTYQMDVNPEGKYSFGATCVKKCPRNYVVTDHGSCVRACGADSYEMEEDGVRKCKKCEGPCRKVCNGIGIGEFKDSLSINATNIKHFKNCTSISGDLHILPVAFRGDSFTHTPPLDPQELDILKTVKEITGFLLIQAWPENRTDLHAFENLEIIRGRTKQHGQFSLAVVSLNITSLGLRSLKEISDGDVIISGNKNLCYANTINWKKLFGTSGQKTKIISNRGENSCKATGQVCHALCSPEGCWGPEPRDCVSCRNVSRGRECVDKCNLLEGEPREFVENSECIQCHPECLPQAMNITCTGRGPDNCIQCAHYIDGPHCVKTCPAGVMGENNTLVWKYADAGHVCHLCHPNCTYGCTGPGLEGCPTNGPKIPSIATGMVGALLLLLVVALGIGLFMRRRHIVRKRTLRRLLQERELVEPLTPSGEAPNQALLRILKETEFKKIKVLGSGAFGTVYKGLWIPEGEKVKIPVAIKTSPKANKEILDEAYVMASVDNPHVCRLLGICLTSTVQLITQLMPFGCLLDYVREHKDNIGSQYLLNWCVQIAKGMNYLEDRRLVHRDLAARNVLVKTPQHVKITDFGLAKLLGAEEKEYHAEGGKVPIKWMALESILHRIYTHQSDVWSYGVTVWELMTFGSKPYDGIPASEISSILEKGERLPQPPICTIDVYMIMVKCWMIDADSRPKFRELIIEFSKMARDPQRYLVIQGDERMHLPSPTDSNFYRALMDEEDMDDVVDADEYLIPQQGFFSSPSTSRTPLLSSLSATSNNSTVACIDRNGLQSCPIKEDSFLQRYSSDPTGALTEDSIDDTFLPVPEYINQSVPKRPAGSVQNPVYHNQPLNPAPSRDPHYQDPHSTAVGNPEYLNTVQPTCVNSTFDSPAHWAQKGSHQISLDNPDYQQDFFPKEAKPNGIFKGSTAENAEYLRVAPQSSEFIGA
T3 sequence (P00533 with tags, fused parts or gaps INS770NPG): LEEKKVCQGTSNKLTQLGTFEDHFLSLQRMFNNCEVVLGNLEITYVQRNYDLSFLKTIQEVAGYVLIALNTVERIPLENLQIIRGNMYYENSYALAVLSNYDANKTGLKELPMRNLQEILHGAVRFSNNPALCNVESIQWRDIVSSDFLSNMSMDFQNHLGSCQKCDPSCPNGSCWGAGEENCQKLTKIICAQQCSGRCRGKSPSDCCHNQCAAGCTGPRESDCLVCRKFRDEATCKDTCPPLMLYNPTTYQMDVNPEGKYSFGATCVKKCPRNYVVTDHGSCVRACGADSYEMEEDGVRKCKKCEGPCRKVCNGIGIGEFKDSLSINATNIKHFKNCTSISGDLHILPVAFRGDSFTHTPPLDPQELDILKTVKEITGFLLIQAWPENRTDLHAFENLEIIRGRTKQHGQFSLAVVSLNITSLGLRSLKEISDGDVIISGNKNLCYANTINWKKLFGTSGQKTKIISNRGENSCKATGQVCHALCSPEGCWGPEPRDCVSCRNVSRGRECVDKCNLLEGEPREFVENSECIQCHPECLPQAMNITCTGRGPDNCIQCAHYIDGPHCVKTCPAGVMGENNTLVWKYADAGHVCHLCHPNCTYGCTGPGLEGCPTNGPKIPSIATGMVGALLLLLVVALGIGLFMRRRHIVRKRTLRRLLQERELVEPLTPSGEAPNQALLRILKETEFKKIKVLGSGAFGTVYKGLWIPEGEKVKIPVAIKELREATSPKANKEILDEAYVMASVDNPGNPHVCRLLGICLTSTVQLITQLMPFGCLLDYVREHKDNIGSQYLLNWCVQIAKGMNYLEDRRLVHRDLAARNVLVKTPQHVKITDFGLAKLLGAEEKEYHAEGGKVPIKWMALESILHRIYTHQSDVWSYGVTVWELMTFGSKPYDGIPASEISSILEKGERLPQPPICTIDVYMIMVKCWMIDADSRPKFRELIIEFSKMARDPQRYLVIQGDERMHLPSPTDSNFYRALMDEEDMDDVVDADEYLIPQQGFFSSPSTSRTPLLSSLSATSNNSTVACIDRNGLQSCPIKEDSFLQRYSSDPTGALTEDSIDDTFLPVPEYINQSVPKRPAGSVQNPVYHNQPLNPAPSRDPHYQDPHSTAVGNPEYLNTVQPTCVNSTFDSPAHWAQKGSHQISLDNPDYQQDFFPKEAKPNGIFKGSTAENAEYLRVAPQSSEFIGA

SMILES	IC50 (EGFR L858R (Ba/F3 cells)) [nM]	IC50 [1] [nM]	IC50 (EGFR WT (Ba/F3 cells)) [nM]	IC50 [2] [nM]	IC50 [3] [nM]	IC50 [4] [nM]	IC50 [5] [nM]	IC50 (EGFR (CUTO14 cells)) [nM]
COc1c(Cl)cccc1Nc1c(-c2ccnc(N)n2)[nH]c2c1C(=O)NC[C@H]2C[C@H]1COCCO1 [Compound 571, (7R)-2-(2-aminopyrimidin-4-yl)-3-[(3-chloro-2-methoxyphenyl)amino]-7-[(2S)-1,4-dioxan-2-ylmethyl]-1H,5H,6H,7H-pyrrolo[3,2-c]pyridin-4-one]	< 100	< 100	100 to 1000	< 100	< 100	< 100	< 100	< 100
C=CC(=O)N1CCC2(CC1)CNC(=O)c1c2[nH]c(-c2ccncn2)c1Nc1cccc(F)c1OC [Compound 611, 3′-[(3-fluoro-2-methoxyphenyl)amino]-1-(prop-2-enoyl)-2′-(pyrimidin-4-yl)-5′,6′-dihydro-1′H-spiro[piperidine-4,7′-pyrrolo[3,2-c]pyridin]-4′-one]	< 100	< 100	< 100	< 100	< 100	< 100		< 100
COc1c(Cl)cccc1Nc1c(-c2ccncn2)[nH]c2c(C[C@@H]3COCCO3)c[nH]c(=O)c12 [compound 656]	< 100	< 100	> 1000	< 100	< 100	< 100		< 100
COc1c(Cl)cccc1Nc1c(-c2ccnc(C)n2)[nH]c2c(C[C@@H]3COCCO3)c[nH]c(=O)c12 [compound 655, 3-[(3-chloro-2-methoxyphenyl)amino]-7-[(2R)-1,4-dioxan-2-ylmethyl]-2-(2-methylpyrimidin-4-yl)-1H,5H-pyrrolo[3,2-c]pyridin-4-one]	< 100	< 100	100 to 1000	< 100	< 100	< 100		< 100
C=CC(=O)N1CCC2(CC1)CNC(=O)c1c2[nH]c(-c2ccncc2F)c1Nc1cc(F)cc(Cl)c1OC [Compound 559, 3′-[(3-chloro-5-fluoro-2-methoxyphenyl)amino]-2′-(3-fluoropyridin-4-yl)-1-(prop-2-enoyl)-5′,6′-dihydro-1′H-spiro[piperidine-4,7′-pyrrolo[3,2-c]pyridin]-4′-one]	< 100	< 100	< 100	< 100	< 100	< 100	< 100	< 100
C=CC(=O)N1CCC2(CC1)CNC(=O)c1c2[nH]c(-c2ccncc2F)c1Nc1cc(F)cc(F)c1OC [compound 610]			100 to 1000	< 100	< 100	< 100		< 100
C=CC(=O)N1CCC2(CC1)CNC(=O)c1c2[nH]c(-c2ccnc(C)n2)c1Nc1cccc(Cl)c1OC [compound 643]			< 100	< 100	< 100	< 100		< 100

Second part, the compound after the results:

IC50 (EGFR L858R (Ba/F3 cells)) [nM]	IC50 [1] [nM]	IC50 (EGFR WT (Ba/F3 cells)) [nM]	IC50 [2] [nM]	IC50 [3] [nM]	IC50 [4] [nM]	IC50 [5] [nM]	IC50 (EGFR (CUTO14 cells)) [nM]	SMILES
		100 to 1000	< 100	< 100	< 100		< 100	C=CC(=O)N1CCC2(CC1)CNC(=O)c1c2[nH]c(-c2ccncn2)c1Nc1cc(F)cc(F)c1OC [compound 612]
		> 1000	100 to 1000	100 to 1000	100 to 1000		100 to 1000	COc1c(F)cccc1Nc1c(-c2ccnc(C)n2)[nH]c2c1C(=O)NCC21CCN(C(=O)/C=C/CN(C)C)CC1 [compound 649]
< 100	< 100	> 1000	< 100			100 to 1000	< 100	COc1c(Cl)cccc1Nc1c(-c2ccncc2F)[nH]c2c1C(=O)NC[C@H]2C[C@@H]1COCCO1 (single isomer, unassigned) [Compound 483]
		> 1000	100 to 1000	100 to 1000	100 to 1000		< 100	COc1c(Cl)cc(F)cc1Nc1c(-c2ccnc(C)n2)[nH]c2c1C(=O)NC[C@H]2C[C@@H]1COCCO1 [compound 652]
